Bounds are passed on as bounds.

Consider `c1ccc(-c2cn3c(n2)Cc2ccccc2C3)cc1`, for which the melting point lay in the range of 195 to 197 °C. As for `CN1CCN(N(c2ccccc2)c2nc3c(-c4c(F)cccc4F)n[nH]c3s2)CC1`, the figure is 208 to 210 °C; as for `CC(C)CCNC(=O)c1ccccc1-c1ccccc1CNC(=O)Nc1ccccc1`, 194 °C; as for `N#Cc1ccc(C(F)(F)F)cc1N=NNc1cc(C(F)(F)F)ccc1C#N`, 183 to 184 °C. As for `CC(=O)c1cccc(Cl)c1C(=O)O`, the figure is 128 to 129 °C.

For the compound `CCCOc1cc(-n2c(=O)cc(C(F)(F)F)n(C)c2=O)c(F)cc1Br`, the melting point turned out to be 119 °C. In the case of `CCOc1cc(OCc2ccc(OCc3nc(-c4ccccc4)oc3C)cc2)ccc1CCC(=O)O` it was 135 to 136 °C. In the case of `COc1ccc2cc(C(C)(O)C(=O)O)ccc2c1` (stereo unspecified) it was 150 to 152 °C; in that of `O=S(=O)(c1cc(SC(F)(F)F)[nH]c1-c1ccc(Cl)cc1)C(F)(F)F`, 118 to 122 °C. In the case of `CC[C@H](COC)n1cc(Br)nc(N2CCc3cc(Br)cc(Cl)c32)c1=O` it was 118 °C. As to `CCCCc1nnc(C(=O)N(C)Cc2ccccc2)n1Cc1ccc(-c2ccccc2C#N)cc1`, the melting point was > 40 °C.

`O=S(=O)(CC(Cl)C(F)=C(F)F)c1ccccc1` (stereo unspecified) gave a melting point of 45 to 47 °C. As for `COc1cc2c(sc3nc(C)c(CO)n32)c(OC)c1OC`, the figure is 196 °C. In the case of `COc1ccc(C2=NO[C@]3(CCOC3)C2)cc1OC1Cc2ccccc2C1` it was 138 °C; in that of `CCC1CCN(C(=O)C(Cc2c[nH]cn2)NC(=O)C2CCC(=O)N2)C1C(N)=O` (racemic), 156 to 160 °C; in that of `O=C(O)C(=O)c1ccc(OCCOc2ccc(F)cc2)cc1`, 97 to 98 °C. As for `CC(=NOCCOc1ccc(CC2SC(=O)NC2=O)cc1)c1cccc(Cl)c1` (stereo unspecified), the figure is 82 to 84 °C. As for `C[C@H]1C(=O)OCCN1CC=CC(=O)Nc1cc2c(Nc3ccc(F)c(Cl)c3)ncnc2cc1OCC1CC1`, the melting point worked out at 182 °C. In the case of `COc1cc(C2(OC)CCOCC2)ccc1OCc1ccc2c(ccc(=O)n2C)c1` it was 172 to 173 °C; in that of `CCCCN(C(=O)N[C@@H](CC(=O)O)c1ccc2c(c1)OCO2)C1CC(=O)N(Cc2ccccc2)C1=O` (stereo partly specified), 80 to 85 °C. In the case of `C#CCNC(=O)c1ncn2c1[C@@H]1CCCN1Cc1c(Cl)cccc1-2` it was 233 to 235 °C; in that of `CCOC(=O)Nc1c(Cl)cccc1[Si](C)(C)C`, 109 to 110 °C. In the case of `Cc1cc(F)ccc1CCC(=O)O` it was 112 to 113 °C; in that of `COC(=O)c1ccc(CC(C)NCC(O)c2ccccc2Cl)cc1` (stereo unspecified), 109 to 110 °C.

Regarding `O=C(c1ccccc1[N+](=O)[O-])C1CCN(C(=O)C(F)(F)F)CC1`, the melting point stood at 126 °C.

`Oc1ccc2c(c1)COc1c-2cc2ccc(O)cc2c1-c1cccs1`: the melting point was in the range of 233 to 236 °C.

For `CCOC(=O)c1cn(CCO)c2nc(-c3ccncc3)c(F)cc2c1=O`, the melting point fell in the range of 223 to 225 °C. In the case of `COc1cc(Oc2cccc(C(F)(F)F)c2)nc(C(=O)NN=C(C)c2ccccc2)c1` it was 181 to 182 °C; in that of `NS(=O)(=O)c1ccc(-c2noc(-c3cnc4c(C(F)(F)F)cc(-c5ccc(C(F)(F)F)cc5)cn34)n2)cc1`, 292 °C.

Consider `Cc1nc(-c2ccc3ccc(Cn4c(C(C)C)nc5cc[nH]c(=O)c54)cc3c2)no1`, for which the melting point lay in the range of 214 to 215 °C.

Regarding `Cn1cc(C(=O)c2ccc(F)cc2)cc1C(=O)c1ccccn1`, the melting point is 159 to 161 °C. In the case of `Cc1noc(C)c1-c1ccnc2[nH]c(-c3cn(C)c4ccc(C(=O)O)cc34)cc12` it was > 305 °C.

In the case of `COc1cc2c(cc1OC)-c1c(C#N)sc(=O)n1CC2`, the melting point was in the range of 205 to 207 °C. In the case of `Nc1cc2c(cc1N)C1CC2CN(C(=O)C(F)(F)F)C1` it was 129 to 131 °C; in that of `CSc1cc2c(cc1C(F)(F)F)N(C(=O)Nc1cccc(-c3csc(-c4cccnc4)n3)c1)CC2`, 154 to 155 °C; in that of `C=C(C)c1cc(CC)n(-c2ccc([N+](=O)[O-])cc2)n1`, 61 to 63 °C. As for `COc1ccc(-c2ccc(N3C[C@H](CNC(C)=O)OC3=O)cc2F)ccc1=O`, the figure is 227 to 228 °C. As for `CC1(C)SC(=S)N(Cc2ccco2)C(=O)C1NC(=O)c1ccccc1` (stereo unspecified), the figure is 168 to 169 °C; as for `Oc1c(-c2ccccc2)nn(Cc2ccccc2)c1-c1ccccc1`, 194 to 195 °C. Compound `C=C(C)N(c1c(C)cccc1C)S(C)(=O)=O` displayed a melting point of 80 to 81 °C.

`CCCCCC(=O)SC1CCN(C(C(=O)C2CC2)c2ccccc2F)CC1` (stereo unspecified) displayed a melting point of 64 to 65 °C. On to `CC(CC(=O)O)C(=O)N1CCC[C@H]1C(=O)O` (stereo partly specified), for which the melting point fell in the range of 132 to 133 °C. As for `COC(=O)c1ccc(NC(=O)C(CC2CCCC2)c2ccc(N)cc2)nc1` (stereo unspecified), the figure is 65 to 68 °C; as for `CS(=O)(=O)Nc1ccc(CCNC(=O)c2cc3cc(O)ccc3cc2O)cc1`, 176 to 178 °C. As for `COC(=O)C1CN(C(=O)OC(C)(C)C)CCN1C(=O)/C=C/c1ccc(Sc2ccc3c(c2)OCCO3)c(C(F)(F)F)c1` (stereo unspecified), the figure is 85 to 87 °C; as for `COn1c(Br)c(C#N)c(Br)c1-c1ccc(Cl)cc1`, 195 to 197 °C; as for `Nc1nc(-c2ccc(CCN3CCN(c4cccc5ccccc45)CC3)cc2)cs1`, 274 to 277 °C. `CC(=NOCCOc1ccc(CC2SC(=O)NC2=O)cc1)c1ccc(O)cc1` (stereo unspecified) displayed a melting point of 157 to 159 °C. For the compound `CCOC(=O)C1=C(C)N(C(C)=O)C(c2cscn2)=NC1c1cccc(OC)c1` (stereo unspecified), the melting point lay in the range of 130 to 131 °C. In the case of `CCOC(=O)c1cnn(-c2ccc(Cl)cc2C(F)(F)F)c1Cl` it was 67 to 69 °C. In the case of `O=c1[nH]c(CCN2CCCCC2)cc2c(O)cccc12` it was 261 to 263 °C; in that of `CCc1nc2c(cnn2CC)c(NC2CCOCC2)c1CNC(=O)c1cccc(C(=O)NCc2ccc(F)c(-c3cccc(CN4CCCNCC4)c3)c2)c1`, 145 to 148 °C; in that of `O=CNc1ccccc1C1=NN(c2ccc(Cl)cc2)C(=O)C1`, 170 to 172 °C. In the case of `NCC1Cc2cc(F)cc(-c3cc(Cl)ccc3Cl)c2O1` (stereo unspecified) it was 165 to 166 °C; in that of `Nc1cc(Cl)nc(SCc2cccc(O)c2)n1`, 148 °C. The compound `CCCCc1nc2c(N)nc3ccc(OCCC4CCN(C(=O)C(C)C)CC4)cc3c2n1C` displayed a melting point of 189 to 193 °C. Compound `OC1CCN(c2nc(-c3ccccc3)nc3ccccc23)CC1` came in with a melting point of 165 to 167 °C. As for `CC1(C)Oc2ccc(C#N)cc2C(c2ccc[nH]c2=O)C1O` (stereo unspecified), the figure is 246 to 247 °C; as for `O=C1c2c(Cl)cccc2-n2cnc(-c3noc(CN4CCCC4)n3)c2[C@@H]2CCN12`, 117 to 120 °C. As for `CC(=O)c1ccc(SC2SCC(O)C(O)C2O)cc1` (stereo unspecified), the figure is 175 °C; as for `CN1C(C)(C)CC(NC(=O)c2ccc(-c3cc4cc(Cl)c(Cl)cc4[nH]3)cc2)CC1(C)C`, 325 °C. As for `C(#Cc1cccnc1)c1ccccc1`, the figure is 42 to 43 °C.

With `Cc1ccc(S(=O)(=O)n2ccc3c(-c4c(-c5ccc(F)cc5)nc5ccc(Cl)nn45)ccnc32)cc1`, the melting point was 244 to 246 °C. In the case of `CCOc1cc(N)c(Cl)cc1C(=O)NCC1CN(Cc2ccccc2)CCCO1` (stereo unspecified) it was 180 to 183 °C. In the case of `COC(=O)c1cccc(C[C@H](N)C(=O)O)c1` it was > 200 °C; in that of `CCOC(=O)c1c(SCc2ccc(OC)cc2)nc2c(F)c(F)c(F)cc2c1O`, 174 to 176 °C. As for `Cc1cc(C#N)ccc1-c1cccc(C=O)c1`, the figure is 86 to 86.5 °C. For the compound `CC(=O)Nc1cccc(-c2ccc3nc(-c4cccnc4N)n(-c4ccc(CNC(=O)c5cccc(F)c5)cc4)c3n2)c1`, the melting point is 174 to 187 °C. `C=Cc1cc(C(C)NC(=O)OC(C)(C)C)cc(F)c1N` (stereo unspecified) came in with a melting point of 59 to 61 °C. As for `CCOc1ccc([N+](=O)[O-])c(NC)n1`, the figure is 101 °C; as for `CNC(=O)C(Cc1ccc(OC)cc1)NC(=O)C(CC(C)C)C(S)CC(=O)OC` (stereo unspecified), 80 to 86 °C. In the case of `CCCN1Cc2c(Cl)nc(Cl)nc2N1` it was 80 to 84 °C; in that of `COCCOc1ccc(CCCOc2cc(CCC(=O)O)n(-c3ccccc3)n2)c(Oc2ncc(C(F)(F)F)cc2Cl)c1`, 128 to 129 °C. In the case of `CCCCc1nc(Cl)c(C=O)n1Cc1ccc(-c2ccccc2-c2nc(=O)o[nH]2)cc1` it was 181 to 183 °C; in that of `CC(C)(C)OC(=O)Nc1cccc(Cn2nc(C(=O)O)c3c2-c2ccc(OCc4cncnc4)cc2CC3)c1`, 226 °C; in that of `CCc1cc(NC(=O)N2CCC(C(=O)O)(c3ccccc3)CC2)c(OC)nc1C`, 173 to 174 °C.

`CC(C)(C)[Si](C)(C)OC(CCCNCCc1ccccc1)COc1ccc2c(=O)cc(-c3ccccc3)oc2c1` (stereo unspecified) returned a melting point of 89 to 91 °C. As for `COc1cc(CSC(=S)N(C)C)nc(N)n1`, the figure is 118 to 120 °C. As for `CCc1cc(N2CCCCC2)c(S(C)(=O)=O)cc1C(=O)N=C(N)N`, the figure is 218 to 220 °C. In turn, `O=C(O)Cc1cccc2c(-c3ccc(C(F)(F)F)cc3)nccc12` gave a melting point of 228 to 230 °C. In the case of `CC(=O)CN1CCc2c(c(=O)oc3cc(C)c(Cl)cc23)C1` it was 172 to 175 °C. In the case of `CCN(CC)C(=O)CCNC1(c2ccccc2Cl)C(=O)Nc2ccc(Cl)cc21` (stereo unspecified), the melting point is 185 °C.

On to `CC(=O)COc1cc(=O)oc2ccccc12`, for which the melting point was 163 to 165 °C. As for `Nc1nccnc1C(=O)Nc1ccccc1Cl`, the figure is 177 to 179 °C; as for `O=C(NN1CCCCC1)c1nc(-c2ccc(Cl)cc2Cl)n(-c2ccc(Cl)cc2)c1CF`, 162 to 163 °C. In the case of `O=C(c1ccc(Nc2ccnc3cc(C(F)(F)F)ccc23)cc1)N1CC=C(c2ccc(Cl)cc2)CC1` it was 225 to 226 °C.
